From US8791148B2, “Substituted benzimidazolone derivatives, medicaments comprising them and their use” (AbbVie Deutschland GmbH & Co. KG, priority 2006, dated 2014)

These molecules were tested against T1, human vasopressin V1b receptor (Homo sapiens, UniProt P47901) (assay: Vasopressin V1b receptor binding assay). Conditions: membranes from CHO-K1 cells with stably expressed human V1b receptors; displacement of 1.5 nM 3H-AVP; read-out: V1b receptor affinity (affinity constant Ki).
T1 construct: expressed in transfected cells; host or cells: CHO-K1 (cell line hV1b-3H2_CHO), membrane preparation
T1 sequence (P47901 1-424): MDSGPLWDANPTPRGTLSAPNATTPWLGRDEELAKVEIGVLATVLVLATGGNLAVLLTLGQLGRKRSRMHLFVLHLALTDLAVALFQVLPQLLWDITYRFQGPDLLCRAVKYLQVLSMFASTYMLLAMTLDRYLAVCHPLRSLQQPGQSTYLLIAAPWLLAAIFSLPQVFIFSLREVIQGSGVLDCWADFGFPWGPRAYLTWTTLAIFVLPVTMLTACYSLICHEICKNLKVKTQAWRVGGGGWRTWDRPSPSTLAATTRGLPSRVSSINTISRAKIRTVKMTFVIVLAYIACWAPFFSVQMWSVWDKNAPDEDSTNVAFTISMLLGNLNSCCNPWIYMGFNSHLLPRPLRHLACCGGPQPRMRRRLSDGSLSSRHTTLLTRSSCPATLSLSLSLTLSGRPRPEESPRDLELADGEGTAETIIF
Outline: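 Ki values come from nonlinear regression of triplicate scintillation counts after filtration. Test compound (2% DMSO in the mixture) and radioligand were incubated 60 min at room temperature with human V1b membranes in pH 7.4 Tris buffer with 10 mM MgCl2 and 0.1% BSA. Nonspecific binding was set with 1 uM AVP.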

| Ki [nM] | SMILES |
| --- | --- |
| < 100 | CCCN1CCN(C2CCN(C(=O)C(c3ccccc3)n3c(=O)n(S(=O)(=O)c4ccc(OC)cc4)c4ccccc43)C2)CC1 (centres unmarked) [Example 107, 1-(4-Methoxybenzenesulfonyl)-3-{2-oxo-1-phenyl-2-[3-(4-propylpiperazin-1-yl)-pyrrolidin-1-yl]ethyl}-1,3-dihydrobenzimidazol-2-one] |
| 500 to 10000 | CCCN1CCN(C2CCN(C(=O)Cn3c(=O)n(S(=O)(=O)c4ccc(OC)cc4)c4ccc(Cl)cc43)C2)CC1 (centres unmarked) [Example 108, 5-Chloro-1-(4-methoxybenzenesulfonyl)-3-{2-oxo-2-[3-(4-propylpiperazin-1-yl)-pyrrolidin-1-yl]-ethyl}-1,3-dihydrobenzimidazol-2-one] |
| 100 to 500 | COc1ccc(S(=O)(=O)n2c(=O)n(C(C(=O)N3CCC[C@H]3c3ncon3)c3ccccc3)c3cc(Cl)ccc32)cc1 (stereo partly drawn) [Example 110, 5-Chloro-1-(4-methoxybenzenesulfonyl)-3-[2-((S)-2-[1,2,4]oxadiazol-3-ylpyrrolidin-1-yl)-2-oxo-1-phenylethyl]-1,3-dihydrobenzimidazol-2-one] |
| 500 to 10000 | COc1ccc(S(=O)(=O)n2c(=O)n(C(C(=O)NCc3ccccn3)c3ccccc3)c3cc(Cl)ccc32)cc1 (centres unmarked) [Example 111, 2-[6-Chloro-3-(4-methoxybenzenesulfonyl)-2-oxo-2,3-dihydrobenzimidazol-1-yl]-2-phenyl-N-pyridin-2-ylmethylacetamide] |
| 500 to 10000 | COc1ccc(S(=O)(=O)n2c(=O)n(C(C(=O)NCc3cccnc3)c3ccccc3)c3cc(Cl)ccc32)cc1 (centres unmarked) [Example 112, 2-[6-Chloro-3-(4-methoxybenzenesulfonyl)-2-oxo-2,3-dihydrobenzimidazol-1-yl]-2-phenyl-N-pyridin-3-ylmethylacetamide] |
| 500 to 10000 | COc1ccc(S(=O)(=O)n2c(=O)n(C(C(=O)NCCCN3CCOCC3)c3ccccc3)c3cc(Cl)ccc32)cc1 (centres unmarked) [Example 113, 2-[6-Chloro-3-(4-methoxybenzenesulfonyl)-2-oxo-2,3-dihydrobenzimidazol-1-yl]-N-(3-morpholin-4-yl-propyl)-2-phenyl-acetamide] |
| 500 to 10000 | COc1ccc(S(=O)(=O)n2c(=O)n(C(C(=O)NCCN3CCCCC3)c3ccccc3)c3cc(Cl)ccc32)cc1 (centres unmarked) [Example 114, 2-[6-Chloro-3-(4-methoxybenzenesulfonyl)-2-oxo-2,3-dihydrobenzimidazol-1-yl]-2-phenyl-N-(2-piperidin-1-ylethyl)acetamide] |
| 100 to 500 | COc1ccc(S(=O)(=O)n2c(=O)n(C(C(=O)NCCN3CCN(C)CC3)c3ccccc3)c3cc(Cl)ccc32)cc1 (centres unmarked) [Example 115, 2-[6-Chloro-3-(4-methoxybenzenesulfonyl)-2-oxo-2,3-dihydrobenzimidazol-1-yl]-N-[2-(4-methylpiperazin-1-yl)ethyl]-2-phenylacetamide] |
| 500 to 10000 | COc1ccc(S(=O)(=O)n2c(=O)n(C(C(=O)NCCc3c[nH]cn3)c3ccccc3)c3cc(Cl)ccc32)cc1 (centres unmarked) [Example 116] |
| 100 to 500 | COc1ccc(S(=O)(=O)n2c(=O)n(C(C(=O)N(C)CCCN(C)C)c3ccccc3)c3cc(Cl)ccc32)cc1 (centres unmarked) [Example 117, 2-[6-Chloro-3-(4-methoxybenzenesulfonyl)-2-oxo-2,3-dihydrobenzimidazol-1-yl]-N-(3-dimethylaminopropyl)-N-methyl-2-phenylacetamide] |
| < 100 | CCN(CCN(C)C)C(=O)C(c1ccccc1)n1c(=O)n(S(=O)(=O)c2ccc(OC)cc2)c2ccc(Cl)cc21 (centres unmarked) [Example 118, 2-[6-Chloro-3-(4-methoxybenzenesulfonyl)-2-oxo-2,3-dihydrobenzimidazol-1-yl]-N-(2-dimethylaminoethyl)-N-ethyl-2-phenylacetamide] |
| 100 to 500 | CCN(CC)CCN(C)C(=O)C(c1ccccc1)n1c(=O)n(S(=O)(=O)c2ccc(OC)cc2)c2ccc(Cl)cc21 (centres unmarked) [Example 119, 2-[6-Chloro-3-(4-methoxybenzenesulfonyl)-2-oxo-2,3-dihydrobenzimidazol-1-yl]-N-(2-diethylaminoethyl)-N-methyl-2-phenylacetamide] |
| 500 to 10000 | COc1ccc(S(=O)(=O)n2c(=O)n(C(C(=O)N(C)CCc3ccccn3)c3ccccc3)c3cc(Cl)ccc32)cc1 (centres unmarked) [Example 120, 2-[6-Chloro-3-(4-methoxybenzenesulfonyl)-2-oxo-2,3-dihydrobenzimidazol-1-yl]-N-methyl-2-phenyl-N-(2-pyridin-2-ylethyl)acetamide] |
| 500 to 10000 | COc1ccc(S(=O)(=O)n2c(=O)n(C(C(=O)NCCCO)c3ccccc3)c3cc(Cl)ccc32)cc1 (centres unmarked) [Example 121, 2-[6-Chloro-3-(4-methoxybenzenesulfonyl)-2-oxo-2,3-dihydrobenzimidazol-1-yl]-N-(3-hydroxypropyl)-2-phenylacetamide] |
| 500 to 10000 | CCCOCCNC(=O)C(c1ccccc1)n1c(=O)n(S(=O)(=O)c2ccc(OC)cc2)c2ccc(Cl)cc21 (centres unmarked) [Example 122, 2-[6-Chloro-3-(4-methoxybenzenesulfonyl)-2-oxo-2,3-dihydrobenzimidazol-1-yl]-2-phenyl-N-(2-propoxyethyl)acetamide] |
| 100 to 500 | COc1ccc(S(=O)(=O)n2c(=O)n(C(C(=O)NCCCCN(C)C)c3ccccc3)c3cc(Cl)ccc32)cc1 (centres unmarked) [Example 124, 2-[6-Chloro-3-(4-methoxybenzenesulfonyl)-2-oxo-2,3-dihydrobenzimidazol-1-yl]—N-(4-dimethylaminobutyl)-2-phenylacetamide] |
| 500 to 10000 | COc1ccc(S(=O)(=O)n2c(=O)n(C(C(=O)NCCCN3CCCC3=O)c3ccccc3)c3cc(Cl)ccc32)cc1 (centres unmarked) [Example 125, 2-[6-Chloro-3-(4-methoxybenzenesulfonyl)-2-oxo-2,3-dihydrobenzimidazol-1-yl]-N-[3-(2-oxopyrrolidin-1-yl)propyl]-2-phenylacetamide] |
| 100 to 500 | COc1ccc(S(=O)(=O)n2c(=O)n(C(C(=O)N3CCCN(C)CC3)c3ccccc3)c3cc(Cl)ccc32)cc1 (centres unmarked) [Example 126, 5-Chloro-1-(4-methoxybenzenesulfonyl)-3-[2-(4-methyl-[1,4]diazepan-1-yl)-2-oxo-1-phenylethyl]-1,3-dihydrobenzoimidazol-2-one] |
| 500 to 10000 | COc1ccc(S(=O)(=O)n2c(=O)n(C(C(=O)N3CCN(C4CCN(C(=O)OC(C)(C)C)CC4)CC3)c3ccccc3)c3cc(Cl)ccc32)cc1 (centres unmarked) [Example 127, tert-Butyl 4-(4-{2-[6-chloro-3-(4-methoxybenzenesulfonyl)-2-oxo-2,3-dihydrobenzimidazol-1-yl]-2-phenylacetyl}piperazin-1-yl)piperidin-1-carboxylate] |
| 100 to 500 | CCCN1CCC(N2CCN(C(=O)C(c3ccccc3)n3c(=O)n(S(=O)(=O)c4ccc(OC)cc4)c4ccc(Cl)cc43)CC2)CC1 (centres unmarked) [Example 129, 5-Chloro-1-(4-methoxybenzenesulfonyl)-3-{2-oxo-1-phenyl-2-[4-(1-propylpiperidin-4-yl)piperazin-1-yl]ethyl}-1,3-dihydrobenzimidazol-2-one] |
| 500 to 10000 | COc1ccc(S(=O)(=O)n2c(=O)n(C(C(=O)NCCN3CCN(C(=O)OC(C)(C)C)CC3)c3ccccc3)c3cc(Cl)ccc32)cc1 (centres unmarked) [Example 130, tert-Butyl 4-(2-{2-[6-chloro-3-(4-methoxybenzenesulfonyl)-2-oxo-2,3-dihydrobenzimidazol-1-yl]-2-phenylacetylamino}ethyl)piperazine-1-carboxylate] |
| 100 to 500 | COc1ccc(S(=O)(=O)n2c(=O)n(C(C(=O)NCCN3CCNCC3)c3ccccc3)c3cc(Cl)ccc32)cc1 (centres unmarked) [Example 131, 2-[6-Chloro-3-(4-methoxybenzenesulfonyl)-2-oxo-2,3-dihydrobenzimidazol-1-yl]-2-phenyl-N-(2-piperazin-1-ylethyl)acetamide] |
| 100 to 500 | CCCN1CCN(CCNC(=O)C(c2ccccc2)n2c(=O)n(S(=O)(=O)c3ccc(OC)cc3)c3ccc(Cl)cc32)CC1 (centres unmarked) [Example 133, 2-[6-Chloro-3-(4-methoxybenzenesulfonyl)-2-oxo-2,3-dihydrobenzimidazol-1-yl]-2-phenyl-N-[2-(4-propylpiperazin-1-yl)-ethyl]-acetamide] |
| 100 to 500 | COc1ccc(S(=O)(=O)n2c(=O)n(C(C(=O)NCCCN3CCNCC3)c3ccccc3)c3cc(Cl)ccc32)cc1 (centres unmarked) [Example 135, 2-[6-Chloro-3-(4-methoxybenzenesulfonyl)-2-oxo-2,3-dihydrobenzimidazol-1-yl] 2-phenyl-N-(3-piperazin-1-ylpropyl)acetamide] |
| 100 to 500 | CCCN1CCN(CCCNC(=O)C(c2ccccc2)n2c(=O)n(S(=O)(=O)c3ccc(OC)cc3)c3ccc(Cl)cc32)CC1 (centres unmarked) [Example 136, 2-[6-Chloro-3-(4-methoxybenzenesulfonyl)-2-oxo-2,3-dihydrobenzimidazol-1-yl]-2-phenyl-N-[3-(4-propylpiperazin-1-yl)propyl]-acetamide] |
| 100 to 500 | COc1ccc(S(=O)(=O)n2c(=O)n(C(C(=O)NCCCN3CCN(C)CC3)c3ccccc3)c3cc(Cl)ccc32)cc1 (centres unmarked) [Example 137, 2-[6-Chloro-3-(4-methoxybenzenesulfonyl)-2-oxo-2,3-dihydrobenzimidazol-1-yl]-N-[3-(4-methylpiperazin-1-yl)propyl]-2-phenyl-acetamide] |
